The test system of series [1] is tau. The series can be described thus: Tau phosphorylation in brain of 3xTg-AD mice (western blot, DAB staining). To be noted: 20 mg/kg oral daily 4 weeks. It is filed as in vivo, mouse. The method, then:
(§1) 3xTg-AD (B6;129-Tg(APPSwe,tauP301L)1Lfa Psen1^tm1Mpm/Mmjax) mice and their littermate wild-type (WT) mice were used in this study. Each experimental group consisted of 4–8 mice, with groups designated as WT, 3xTg-AD Vehicle, and 3xTg-AD RA-PR058. All mice were maintained in a 12-hour light/dark cycle with free access to food and water. 7-month-old age of mice were administered with 20 mg/kg of RA-PR058 orally once a day for 1 month followed by the elevated plus maze test. All animal experimental procedures were approved by the Institutional Animal Care and Use Committee of Sungkyunkwan University (SKKUIACUC2022-10-41-1).
After EPM was conducted, mice were sacrificed, and brain tissues were collected as previously described (Park et al. [2021]). Mice were anesthetized by injecting Zoletil (Virbac) and Rompun (Bayer) intraperitoneally. After mice were anesthetized, they were perfused with phosphate-buffered saline (PBS). Then, brains were extracted and cut into two hemispheres; one hemisphere was preserved in 4% paraformaldehyde and the other was dissected into the cortex and hippocampus. Dissected tissues were then snap-frozen in liquid nitrogen and stored at −80 ℃ until further biochemical analysis.
Samples for western blot analysis were prepared as previously described (Gwon et al. [2012]). Cells were lysed with T-PER™ Tissue Protein Extraction Reagent (Thermo Fisher Scientific) supplemented with protease/phosphatase inhibitor cocktail (Thermo Fisher Scientific) and incubated at 4 ℃ for 10 minutes. After incubation, lysed samples were centrifuged at 13,000 x rpm for 10 minutes at 4 ℃ and the supernatant were used for western blot analysis. The cortices and hippocampi tissues were homogenized using RIPA lysis buffer (Millipore) supplemented with protease/phosphatase inhibitor cocktail and incubated at 4 ℃ for 30 minutes. Following incubation, lysed tissues were centrifuged at 13,000 x rpm for 30 minutes at 4 ℃ and the supernatant were used for western blot analysis. Protein concentrations were measured using Pierce™ BCA Protein Assay Kits (Thermo Fisher Scientific). Equal amounts of proteins were mixed with NuPAGE™ LDS Sample Buffer (Invitrogen) and 5% 2-mercaptoethanol (Sigma) and then boiled at 95 ℃ for 5 minutes. 4–12 μg of proteins were loaded onto SDS-polyacrylamide gels and electrophoresed (SDS-PAGE) until the protein bands were fully separated. After SDS-PAGE, the protein bands were transferred onto polyvinylidene fluoride (PVDF) membranes (Millipore). Following transfer, PVDF membranes were blocked with 5% non-fat skim milk in tris-buffered saline with Tween20 (Junsei) (TBS-T) for 1 hour at room temperature. Then, PVDF membranes were incubated overnight at 4 ℃ with primary antibodies against APP (6E10, BioLegend, 803001, 1:1,000), AT8 (Invitrogen, MN1020, 1:1,000), AT180 (Invitrogen, MN1040, 1:1,000), BACE1 (Cell Signaling Technology, 5606, 1:1,000), β-Actin (Sigma, A5441, 1:10,000), p-JNK (Cell Signaling Technology, 4671, 1:1,000), JNK (Cell Signaling Technology, 9252, 1:1,000), p-Tau^S396 (Invitrogen, 44-752G, 1:1,000), Tau13 (BioLegend, 835201, 1:1,000). Following incubation, membranes were washed with TBS-T and incubated with horseradish peroxidase-conjugated anti-mouse secondary antibody (Sigma, AP124P, 1:5,000) or anti-rabbit secondary antibody (Invitrogen, 31460, 1:5,000) for 1 hour at room temperature. […] Protein bands were quantified using ImageJ (NIH). […]
(In western blotting, separated proteins are transferred to a membrane and probed.)

The nature of series [2]: Plasma and brain pharmacokinetics after oral administration. It is filed as in vivo. To be noted: Sprague-Dawley, rat, 10 mg/kg oral, S.D. rats; for AUC(0-t): read-out: AUC0-7h. The method, then: Pharmacokinetic assays were conducted by NeuroVis (Republic of Korea). 10 mg/kg of RA-PR058 was administered to Sprague–Dawley rats by either oral administration route or intravenous injection route. Blood sampling was conducted using the BASi Culex ABS system. After cannulation, catheters were inserted into the jugular vein and the carotid artery of the rats, with the system programmed to collect 200 μL samples. Collected blood samples were centrifuged at 12,000 x rpm for 10 minutes to separate plasma, which was then immediately stored at −80 ℃. For brain pharmacokinetics, 10 mg/kg of RA-PR058 was administered orally to Sprague–Dawley rats, followed by collection of both blood and brain tissue. After collection, samples were mixed with the internal standard, ofloxacin, and centrifuged at 13,000 x rpm for 5 minutes at 4 ℃. The resulting supernatants were then combined with 50% methanol and analyzed by LC-MS/MS.

Series [3] concerns 3xTg-AD mice. The series can be described thus: Elevated plus maze test in 3xTg-AD mice. It counts as in vivo, mouse. As to conditions: 20 mg/kg oral daily for 1 month, vs vehicle-treated 3xTg-AD. Here is the method: as §1
The elevated plus maze (EPM) test is a widely used behavioral assay to assess anxiety-like behavior in mice (Walf and Frye [2007]). After administering RA-PR058 for 1 month, EPM was performed to evaluate its effects. Briefly, the mouse was placed in the center of the maze, facing an open arm, and allowed to explore freely for 5 minutes. Behavioral patterns were recorded and analyzed by EthoVision software (Noldus). Data were used to assess the effects of RA-PR058 on anxiety-like behavior compared to control mice.

Where two headings read alike, the source gives them in different places.

We go through one compound from PMC11809180, “RA-PR058, a novel ramalin derivative, reduces BACE1 expression and phosphorylation of tau in Alzheimer’s disease mouse models” (Animal Cells and Systems, 2025).

Regarding `Cl.N[C@@H](CCC(=O)NNc1ccccc1F)C(F)F` [RA-PR058, (S)-4-amino-5,5-difluoro-N'-(2-fluorophenyl)pentanehydrazide hydrochloride], in series [1] (cortex, normalized with Tau13), the “Tau phosphorylation at Ser202/Thr205 (AT8)” value is listed as “significantly reduced”, the “Tau phosphorylation at Ser396” value is listed as “significantly reduced” and the “Tau phosphorylation at Thr231 (AT180)” value is listed as “significantly reduced”. Besides, the “AT8 expression in the hippocampus” value in series [1] (hippocampus) is recorded as “significantly reduced”. Besides, the “Other phosphorylated tau species in the hippocampus” value in series [1] (hippocampus, AT180, p-Tau S396) is recorded as “did not affect”. Moreover, the Kp in series [2] (brain and plasma, read-out: Brain-to-plasma AUC ratio (AUC0–7h)) was 0.916. In series [2] (Brain), the Cmax came out at 3190 ng/mL, the half-life was 1.57 h and the AUC(0-t) stood at 6090 ng·h/mL. In series [2] (Plasma), the Cmax is 3900 ng/mL, the half-life was 1.06 h and the AUC(0-t) stood at 5700 ng·h/mL. Further, the “Time spent in open arms of the EPM” value in series [3] is given as “significantly more time”.

Broadly, the Cmax is the highest concentration seen after dosing. Broadly, the half-life is how long it takes for the measured level to halve. Read a high half-life as slow loss.
